From publication PMC9705075, “In Vitro characterization of the endocrine disrupting effects of per- and poly-fluoroalkyl substances (PFASs) on the human androgen receptor” (Journal of hazardous materials, 2022)

Columns and labels:
[1] = test system: AR and PSA expression; design: method as in Kharlyngdoh et al. (2015); settings: at 1 μM; ref Kharlyngdoh et al. (2015); cited from earlier work
[2] = test system: AR; design: method as in Kjeldsen and Bonefeld-Jørgensen, 2013; settings: in vitro study; ref Kjeldsen and Bonefeld-Jørgensen, 2013; cited from earlier work
[3] = test system: intracellular AR protein in VCaP cells; test: Immunoblotting of intracellular AR protein in VCaP cells; format: cell-based, human; settings: 10% FBS, 48 h exposure to PFAS
Protocol: Cells were plated at a density of 2.0 × 10^6 cells/well in 6-well plates (CellStar, Monroe, NC) and incubated 24 h.
Values are expressed as the mean fold change ± S.E.M. from three independent experiments.

[4] = test system: PSA, FKBP5 and AR mRNA in VCaP human prostate cancer cells; test: Expression of androgen responsive genes (real-time PCR) in VCaP cells; format: cell-based; settings: 24 h; for testosterone induced expression of FKBP5 / testosterone induced expression of PSA: 1 and 5 μM PFAS with […] testosterone; for testosterone induced expression of FKBP5 / testosterone induced expression of PSA / expression of AR: 10% CD FBS; for expression of AR: PFAS (1 and 5 μM) or 50 nM OHF with […] testosterone
Protocol: VCaP cells were cultured in phenol red-free DMEM supplemented with 10% charcoal-dextran stripped FBS (10% CD FBS, Hyclone, USA) and 1% L-glutamine (Gibco, Grand Island, NY) for 3 days prior to PFAS treatment. Cells were plated at a density of 2.0 × 10^6 cells/well in 6-well plates (CellStar, Monroe, NC) and incubated 24 h. […] After the incubation, total RNA was extracted using the RNeasy Mini Kit (Qiagen, Germantown, MD). Briefly, 2 μg of total RNA were reverse transcribed to cDNA using the SuperScript IV VILO (Thermo Scientific, Waltham, MA) and subjected to real-time PCR (Stratagene MxP3005, Agilent Technologies, Palo Alto, CA). The cDNA was amplified in 10 μL of SYBR Green real-time PCR Master Mixes (Thermofisher Scientific, Waltham, MA) according to the manufacturer’s protocol. […] The fold change of the target genes was compared to the vehicle control using the 2^−ΔΔCt method ([Livak and Schmittgen, 2001]).
Fig. 4. […] Values are expressed as the mean fold change ± S.E.M. from three independent experiments. […] Significance levels are represented with asterisk as following: *p < 0.05, **p < 0.01, ***p < 0.001, and ****p < 0.0001. The Ptrend is determined based on linear regression analysis.

[5] = target: T1, human androgen receptor (hAR) (Homo sapiens, UniProt P10275); test: Mechanism of AR inhibition: testosterone dose-response curves in presence of test chemical, luciferase reporter, MDA-kb2 cells; format: cell-based; settings: highest noncytotoxic concentration: 15 μM NON, HEP, OCT, NNN; 1 μM FLO; 0.05 μM OHF
T1 sequence (P10275 whole entry): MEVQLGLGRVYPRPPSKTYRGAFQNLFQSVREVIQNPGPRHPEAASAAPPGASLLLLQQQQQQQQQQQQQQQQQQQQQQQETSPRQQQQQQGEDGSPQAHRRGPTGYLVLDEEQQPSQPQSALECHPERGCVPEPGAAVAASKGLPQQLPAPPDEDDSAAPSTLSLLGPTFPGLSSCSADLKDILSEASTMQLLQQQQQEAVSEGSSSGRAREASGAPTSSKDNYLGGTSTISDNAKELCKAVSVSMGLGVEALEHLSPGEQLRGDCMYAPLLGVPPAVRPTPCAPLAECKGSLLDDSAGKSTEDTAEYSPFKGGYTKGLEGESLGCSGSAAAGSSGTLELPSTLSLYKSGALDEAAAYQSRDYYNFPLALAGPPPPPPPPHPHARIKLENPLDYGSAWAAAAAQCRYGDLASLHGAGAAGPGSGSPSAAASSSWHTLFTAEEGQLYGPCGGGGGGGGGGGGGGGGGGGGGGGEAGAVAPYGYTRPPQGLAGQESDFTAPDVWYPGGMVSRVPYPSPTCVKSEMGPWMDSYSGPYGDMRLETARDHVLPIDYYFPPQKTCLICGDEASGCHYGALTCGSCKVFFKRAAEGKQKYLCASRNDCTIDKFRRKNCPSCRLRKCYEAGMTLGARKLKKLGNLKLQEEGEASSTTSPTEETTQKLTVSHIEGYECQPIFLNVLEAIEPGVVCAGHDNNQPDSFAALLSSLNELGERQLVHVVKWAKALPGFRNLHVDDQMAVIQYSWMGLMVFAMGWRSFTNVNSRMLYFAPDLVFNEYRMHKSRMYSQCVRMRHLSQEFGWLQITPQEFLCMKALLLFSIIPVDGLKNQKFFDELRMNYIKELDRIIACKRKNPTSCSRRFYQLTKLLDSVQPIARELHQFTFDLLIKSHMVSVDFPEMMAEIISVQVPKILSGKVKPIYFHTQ

[6] = target: T1, human androgen receptor (hAR); test: AR-mediated luciferase reporter gene assay, antiandrogenic effects (co-culture with […] testosterone), MDA-kb2 cells; format: cell-based; settings: for IC20: MDA-kb2, 24 h, read-out: Inhibition REC20
[7] = test system: MDA-kb2 cells; test: Cell viability (colorimetric MTT) assay; format: cell-based, human
Protocol: The cytotoxic effect of PFASs was measured by a colorimetric MTT assay as described previously ([Tachachartvanich et al., 2020]). Briefly, MDA-kb2 cells were plated at a density of 3.0 × 10^4 cells/well in clear 96-well plates (Thermo Scientific, Waltham, MA). After 24 h incubation, cells were treated with PFASs at concentrations ranging from 0.1 to 100 μM in triplicate per treatment. The optical density was assessed at 570 nm with reference wavelength of 650 nm using microplate spectrophotometer (Tecan Infinite® 200PRO, Austria). All cytotoxicity experiments were performed side-by-side with the corresponding cell culture assays and repeated at least three times in a separate independent setup.

C=C(Br)COc1c(Br)cc(Br)cc1Br [BATE, 2-bromoallyl 2,4,6-tribromophenyl ether]
AR expression [1]: significantly increased AR expression

O=C(O)C(F)(F)C(F)(F)C(F)(F)C(F)(F)C(F)(F)C(F)(F)C(F)(F)C(F)(F)C(F)(F)F [PFDA, perfluorodecanoate]
RIC20, antiandrogenic effect [2]: ~24 µM

FC(F)(F)C(F)(F)C(F)(F)c1nc2ccccc2nc1-c1ccccc1 [HEP, 2-(Heptafluoropropyl)-3-phenylquinoxaline]
AR protein level, normal conditions [3]: significantly decreased the AR protein | testosterone induced expression of FKBP5 [4]: significantly and concentration dependently decreased | testosterone induced expression of PSA [4]: significantly and concentration dependently decreased | effect on dose response curve of testosterone [5]: rightward parallel shift | IC20 [6]: 3.08 µM

O=C(O)C(F)(F)C(F)(F)C(F)(F)C(F)(F)C(F)(F)C(F)(F)C(F)(F)F [PFOA, perfluorooctanoic acid]
RIC20, antiandrogenic effect [2]: around 10 μM

O=C(O)C(F)(F)C(F)(F)C(F)(F)C(F)(F)C(F)(F)C(F)(F)C(F)(F)C(F)(F)F [PFNA, perfluorononanoate]
RIC20, antiandrogenic effect [2]: ~44 µM

O=S(=O)(O)C(F)(F)C(F)(F)C(F)(F)C(F)(F)C(F)(F)C(F)(F)F [PFHxS, perfluorohexane sulfonate]
RIC20, antiandrogenic effect [2]: ~19 µM

Oc1ccc(/N=N/c2ccc(-c3ccc(C(F)(F)C(F)(F)C(F)(F)F)cc3)cc2)c(F)c1 [FLO, 3-Fluoro-4-{(E)-[4'-(heptafluoropropyl) [1,1'-biphenyl]-4-yl]diazenyl}phenol]
cytotoxicity [7]: relatively high cytotoxicity | effect on dose response curve of testosterone [5]: did not change the dose response curves

Fc1c(F)c(F)c2c(F)c(F)c(F)c(F)c2c1F [OCT, Octafluoronaphthalene]
effect on dose response curve of testosterone [5]: did not change the dose response curves

C=CCOc1c(Br)cc(Br)cc1Br [ATE, allyl 2,4,6-tribromophenyl ether]
AR expression [1]: significantly increased AR expression

CC(C)(O)C(=O)Nc1ccc([N+](=O)[O-])c(C(F)(F)F)c1 [OHF, hydroxyflutamide, reference compound]
expression of AR [4]: upregulating the expression of AR | effect on dose response curve of testosterone [5]: the most parallel shift

O=c1cc(C(F)(F)C(F)(F)C(F)(F)C(F)(F)F)c2cc3c4c(c2o1)CCCN4CCC3 [NON, 9-(Nonafluorobutyl)-2,3,6,7-tetrahydro-1H,5H,11H-pyrano[2,3-f]pyrido[3,2,1-ij]quinolin-11-one]
AR protein level, normal conditions [3]: significantly decreased the AR protein | testosterone induced expression of FKBP5 [4]: significantly and concentration dependently decreased | testosterone induced expression of PSA [4]: significantly and concentration dependently decreased | effect on dose response curve of testosterone [5]: rightward parallel shift | IC20 [6]: 10.5 µM

O=C(Nc1ccc([N+](=O)[O-])cc1)C(F)(F)C(F)(F)C(F)(F)C(F)(F)F [NNN, 2,2,3,3,4,4,5,5,5-Nonafluoro-N-(4 nitrophenyl)pentanamide]
AR protein level, normal conditions [3]: did not significantly affect cellular AR protein levels | AR expression at 1 μM ([4]; 1 μM with […] testosterone): did not significantly affect AR expression | testosterone induced expression of FKBP5 [4]: significantly and concentration dependently decreased | testosterone induced expression of PSA [4]: significantly and concentration dependently decreased | expression of AR [4]: upregulating the expression of AR | effect on dose response curve of testosterone [5]: rightward parallel shift | IC20 [6]: 2.78 µM | inhibition at 10 µM ([6]; MDA-kb2, read-out: inhibition of AR transactivation): ~25%
